Data reported in ChEMBL document CHEMBL1201862, “PubChem BioAssay data set” (2004).
Activity calls are given as the source filed them.

Experiments:
Format in all cases: functional
[1] = biological target: T1, Replicative DNA helicase DnaB (Mycobacterium tuberculosis, UniProt P9WMR3); assay: DnaB intein splicing inhibitors, dose response, biochemical, cell-free fluorescence (AID 449749)
T1 sequence (P9WMR3 whole entry): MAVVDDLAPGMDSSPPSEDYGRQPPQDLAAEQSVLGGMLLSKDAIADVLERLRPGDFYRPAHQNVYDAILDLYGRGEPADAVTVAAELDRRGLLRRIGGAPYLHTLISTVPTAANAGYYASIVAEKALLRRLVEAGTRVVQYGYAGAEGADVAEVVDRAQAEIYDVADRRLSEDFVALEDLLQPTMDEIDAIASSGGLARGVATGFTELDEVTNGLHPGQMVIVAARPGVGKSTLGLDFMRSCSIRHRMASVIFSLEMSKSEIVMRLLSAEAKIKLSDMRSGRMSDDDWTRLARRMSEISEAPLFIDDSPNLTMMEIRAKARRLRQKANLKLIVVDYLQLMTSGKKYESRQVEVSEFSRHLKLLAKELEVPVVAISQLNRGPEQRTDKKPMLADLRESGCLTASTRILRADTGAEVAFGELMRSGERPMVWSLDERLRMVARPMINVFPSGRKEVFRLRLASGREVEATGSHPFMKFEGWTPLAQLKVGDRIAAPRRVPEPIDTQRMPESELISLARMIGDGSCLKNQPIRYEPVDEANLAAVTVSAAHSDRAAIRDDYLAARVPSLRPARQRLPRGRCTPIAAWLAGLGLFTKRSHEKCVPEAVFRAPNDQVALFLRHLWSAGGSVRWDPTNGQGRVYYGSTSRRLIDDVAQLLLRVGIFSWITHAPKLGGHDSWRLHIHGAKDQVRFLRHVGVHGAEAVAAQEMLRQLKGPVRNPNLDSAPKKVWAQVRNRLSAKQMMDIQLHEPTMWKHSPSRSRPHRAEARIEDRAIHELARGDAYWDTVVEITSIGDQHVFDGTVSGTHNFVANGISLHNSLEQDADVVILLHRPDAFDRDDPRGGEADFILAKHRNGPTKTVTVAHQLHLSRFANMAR

Protein RecA = biological target: T2, Protein RecA (Mycobacterium tuberculosis, UniProt P9WHJ3); assay: Fluorescence Cell-Free Homogeneous Dose Retest to Identify Inhibitors of RecA-Intein Splicing Activity. [Related pubchem assays (depositor defined):AID2097, AID2223, AID489010, AID492950]
T2 sequence (P9WHJ3 whole entry): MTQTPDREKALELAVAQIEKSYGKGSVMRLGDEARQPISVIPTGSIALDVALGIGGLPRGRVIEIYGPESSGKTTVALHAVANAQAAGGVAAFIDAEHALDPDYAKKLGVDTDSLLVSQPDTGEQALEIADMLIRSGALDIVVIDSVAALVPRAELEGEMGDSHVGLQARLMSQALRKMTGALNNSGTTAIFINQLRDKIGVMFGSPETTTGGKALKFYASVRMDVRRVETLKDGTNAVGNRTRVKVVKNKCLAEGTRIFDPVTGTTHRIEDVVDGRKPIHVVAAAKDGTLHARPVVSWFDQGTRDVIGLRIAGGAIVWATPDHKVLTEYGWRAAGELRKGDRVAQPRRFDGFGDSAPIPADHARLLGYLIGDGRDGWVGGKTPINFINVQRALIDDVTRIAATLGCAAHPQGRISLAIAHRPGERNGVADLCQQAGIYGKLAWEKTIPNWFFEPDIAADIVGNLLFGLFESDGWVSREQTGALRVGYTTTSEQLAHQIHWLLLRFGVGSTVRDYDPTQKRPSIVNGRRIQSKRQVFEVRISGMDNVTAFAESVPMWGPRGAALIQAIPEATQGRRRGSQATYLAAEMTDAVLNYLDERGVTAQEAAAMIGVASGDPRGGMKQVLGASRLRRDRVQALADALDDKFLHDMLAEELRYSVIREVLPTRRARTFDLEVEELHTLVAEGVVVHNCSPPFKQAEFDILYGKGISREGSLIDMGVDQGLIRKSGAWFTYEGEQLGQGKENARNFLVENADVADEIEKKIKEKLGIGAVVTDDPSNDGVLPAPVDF

[2] = biological target: T3, Sentrin-specific protease 8 (Homo sapiens, UniProt Q96LD8);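 also: luminescence read-out of SENP8 inhibition, dose-response confirmation following an ultra-high-throughput screen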
T3 sequence (Q96LD8 whole entry): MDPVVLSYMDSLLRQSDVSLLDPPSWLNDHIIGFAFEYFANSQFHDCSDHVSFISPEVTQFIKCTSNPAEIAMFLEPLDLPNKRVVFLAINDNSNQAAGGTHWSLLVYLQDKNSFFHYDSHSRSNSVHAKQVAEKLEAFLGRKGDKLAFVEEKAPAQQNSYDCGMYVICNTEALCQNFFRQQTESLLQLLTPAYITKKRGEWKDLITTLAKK

[3] = biological target: T4, Sentrin-specific protease 7 (Homo sapiens, UniProt Q9BQF6);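 also: Luminescence-based dose-response confirmation of ultra-high-throughput screening hits, measuring inhibition of SENP7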
T4 sequence (Q9BQF6 whole entry): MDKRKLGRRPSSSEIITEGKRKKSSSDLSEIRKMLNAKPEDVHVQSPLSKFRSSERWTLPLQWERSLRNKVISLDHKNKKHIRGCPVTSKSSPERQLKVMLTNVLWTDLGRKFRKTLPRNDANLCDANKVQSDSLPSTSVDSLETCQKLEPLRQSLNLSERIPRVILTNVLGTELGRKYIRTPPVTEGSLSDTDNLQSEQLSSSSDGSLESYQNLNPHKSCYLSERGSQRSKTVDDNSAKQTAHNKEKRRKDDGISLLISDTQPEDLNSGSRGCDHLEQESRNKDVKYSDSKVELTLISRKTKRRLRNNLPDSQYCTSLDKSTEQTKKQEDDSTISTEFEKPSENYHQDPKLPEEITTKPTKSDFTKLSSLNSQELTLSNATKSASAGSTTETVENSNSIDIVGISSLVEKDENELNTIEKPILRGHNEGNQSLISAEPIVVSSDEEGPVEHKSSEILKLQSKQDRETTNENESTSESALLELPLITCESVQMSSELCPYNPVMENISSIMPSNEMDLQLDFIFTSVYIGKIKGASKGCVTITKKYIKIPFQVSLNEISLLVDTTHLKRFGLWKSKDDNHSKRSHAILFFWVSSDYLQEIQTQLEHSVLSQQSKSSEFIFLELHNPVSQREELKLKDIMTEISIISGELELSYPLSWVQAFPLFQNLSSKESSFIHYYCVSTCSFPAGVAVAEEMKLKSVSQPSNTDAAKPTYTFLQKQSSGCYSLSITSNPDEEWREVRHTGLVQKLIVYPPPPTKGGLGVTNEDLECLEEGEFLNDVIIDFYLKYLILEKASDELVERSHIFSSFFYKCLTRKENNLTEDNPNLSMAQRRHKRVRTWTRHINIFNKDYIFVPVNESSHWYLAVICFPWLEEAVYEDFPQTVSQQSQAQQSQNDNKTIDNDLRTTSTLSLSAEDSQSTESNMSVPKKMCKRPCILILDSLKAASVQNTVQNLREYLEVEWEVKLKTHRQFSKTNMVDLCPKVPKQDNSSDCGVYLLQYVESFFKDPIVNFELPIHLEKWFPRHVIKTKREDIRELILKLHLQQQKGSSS

SMILES	AC50 [1]	EC50 (Protein RecA)	IC50 [2]	IC50 [3]
Cc1nn(-c2ccccc2)c(Cl)c1CN(C(=O)CCl)c1ccc(Cl)cc1	1.52 µM (active)	0.355 µM (active)		
Oc1ccccc1/C=C/c1noc(-c2ccccc2O)n1			> 100 µM (inactive)	3.46 µM (active)
Cc1cccc(N=Nc2ccc(N(C)C)cc2)c1			3.74 µM (active)	2.52 µM (active)
O=C(O)CSc1cc(NS(=O)(=O)c2ccc(Cl)cc2)c2ccccc2c1O	2.91 µM (active)	2.39 µM (active)		
COc1ccccc1N1C(=O)Cc2ccccc2C1=O	> 380 µM (inactive)	9.77 µM (active)	49.4 µM (active)	31.2 µM (active)
